Data from patent US6251950A, “Aliphatic propargylamines as cellular rescue agents” (University of Saskatchewan, priority 1998, dated 2001).
Counter-ions that a name gives are not always drawn. Like-named read-outs stand apart in the source and are kept apart here.

Columns and labels:
[1] = test system: pyramidal neurons in the hippocampus (CA1 neurons); assay: Hypoxia/ischaemia model, CA1 neuron survival; format: in vivo, rat; conditions: for response vs control in vivo at 0.1 µmol/kg: read-out: Percentage survival of CA1 neurones, of vehicle treated controls (Table 4); for mean survival of CA1 neurons, percentage of vehicle treated controls (Table 2): **P < 0.01
Description: This model produces selective, unilateral lesioning of the pyramidal neurons in the hippocampus which involves neuronal apoptosis.
Values are the mean survival of CA1 neurons expressed as a percentage of
vehicle treated controls (vehicle = 100%) ± sem (n = 6 - 10).

[2] = test system: cerebellar granule cells (CGC); assay: in vitro; format: cell-based, Wistar rat; conditions: for Percent Apoptotic Nuclei (Ara C + R-2HMP + compound): antagonism, Ara C 100 μM + R-2HMP 100 nM + S-enantiomer 10 μM, #P < 0.05 compared to Ara C + R-2HMP; for Percent Apoptotic Nuclei (Ara C + R-2HMP + compound) / Percent Apoptotic Nuclei (Control + compound) / Percent Apoptotic Nuclei (Ara C + compound): mean ± sem of 4 cultures; for Percent Apoptotic Nuclei (Control + compound): no Ara C, control 4.2 ± 0.3; for Percent Apoptotic Nuclei (Control + compound) / Percent Apoptotic Nuclei (Ara C + compound): R-2HMP 100 nM, S-2HMP 10 μM, S-2HPA 10 μM; for Percent Apoptotic Nuclei (Ara C + compound): with Ara C 100 μM, *P < 0.05 compared to Ara C alone; for blocking of Ara C induced apoptosis: 10^-7 M (FIG. 1c)
Description: Cultures of cerebellar granule cells (CGC) can be induced into apoptosis by the addition of a high concentration of cytosine arabinoside (Ara C) (Dessi et al., 1995) and it has been shown that this is a p53 dependent apoptosis (Enokido et al, 1996). We have measured the antiapoptotic effect of N-(2-heptyl)propargylamine (2HPA) using this system and compared the results to those obtained with previously known aliphatic methyl propargylamines and deprenyl.
Cultures of CGC were obtained from 6-8 day old Wistar rat pups. Cultures were grown on glass in 35 mm petri dishes for 3 days and then used for experiments. 20 μl aliquots of drug solutions (Ara C, anti-apoptotic drugs, drug vehicles) were added to the medium of the cultures. 24 Hours later the cultures were fixed with FAM, and stained with bis-benzamide. Normal and apoptotic nuclei were counted to a total of 90-120 cells per culture. […] Concentrations in excess of 150 μM caused detachment of the cultures.
Compounds were added at the following concentrations: Ara C, 100 μM,

[3] = biological target: T1, rat liver mitochondrial monoamine oxidase B (Rattus norvegicus, UniProt P19643); assay: biochemical; format: biochemical; conditions: for Comparison to most effective MAO-B inhibitor in group / MAO-B inhibitory activity: in vitro; for Comparison to most effective MAO-B inhibitor in group: relative to most effective inhibitor in group; for IC50: substrate PE (β-phenylethylamine) 1.9 × 10^-5 M, average of at least 2 independent triplicate experiments
T1 sequence (P19643 1-520): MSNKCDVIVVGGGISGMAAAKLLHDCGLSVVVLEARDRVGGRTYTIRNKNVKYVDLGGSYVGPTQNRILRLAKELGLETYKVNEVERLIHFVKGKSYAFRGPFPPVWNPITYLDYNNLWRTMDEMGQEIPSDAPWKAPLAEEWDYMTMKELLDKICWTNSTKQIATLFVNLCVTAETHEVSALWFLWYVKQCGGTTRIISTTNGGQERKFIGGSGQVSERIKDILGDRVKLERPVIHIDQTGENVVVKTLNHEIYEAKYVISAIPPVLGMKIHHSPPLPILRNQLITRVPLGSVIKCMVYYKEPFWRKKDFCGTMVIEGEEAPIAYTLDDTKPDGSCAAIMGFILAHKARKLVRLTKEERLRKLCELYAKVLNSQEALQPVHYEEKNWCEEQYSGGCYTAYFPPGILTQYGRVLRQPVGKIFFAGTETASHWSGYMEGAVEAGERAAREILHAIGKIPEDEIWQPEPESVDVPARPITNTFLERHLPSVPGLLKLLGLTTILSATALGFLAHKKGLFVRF
Description: Enzyme activity was assessed using a radiometric method as previously described (Yu et al, 1992).

damaged neurons = conditions: cited from earlier work
mouse brain MAO-B = biological target: T2, mouse brain MAO-B (Mus musculus, UniProt Q8BW75); assay: Inhibition in vivo of brain MAO-B activity after intraperitoneal administration; conditions: i.p.
T2 construct: Striata were dissected from the brain two hours after i.p. administration of the drugs; from tissue; host or cells: mouse brain striata, dissected two hours after i.p. dosing
T2 sequence (Q8BW75 1-520): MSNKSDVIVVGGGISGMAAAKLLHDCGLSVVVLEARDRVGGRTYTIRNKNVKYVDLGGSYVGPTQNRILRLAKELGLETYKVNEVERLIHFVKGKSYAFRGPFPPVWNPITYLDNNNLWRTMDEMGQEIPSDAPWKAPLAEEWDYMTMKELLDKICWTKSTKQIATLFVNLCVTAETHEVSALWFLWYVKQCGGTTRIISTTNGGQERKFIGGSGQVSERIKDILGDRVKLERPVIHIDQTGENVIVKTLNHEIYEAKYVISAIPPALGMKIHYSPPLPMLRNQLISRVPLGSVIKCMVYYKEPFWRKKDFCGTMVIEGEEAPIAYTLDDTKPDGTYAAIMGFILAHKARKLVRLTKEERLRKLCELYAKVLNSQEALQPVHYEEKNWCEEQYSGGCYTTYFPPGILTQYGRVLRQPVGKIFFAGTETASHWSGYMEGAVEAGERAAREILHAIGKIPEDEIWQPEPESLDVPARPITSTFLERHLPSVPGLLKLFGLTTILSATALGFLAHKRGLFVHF
Description: Results are the average of two independent triplicate experiments for each i.p. dose. The doses were 0.5, 1, 2, 5, 10, 20 mg/Kg. Striata were dissected from the brain two hours after i.p. administration of the drugs. MAO-B activities were then determined immediately (Yu et al 1992). The values were estimated from dose-response curves.

[4] = Rattus norvegicus, Neuron, sc, 0.1 μmol/kg, s.c., vehicle = 100%, ± sem (n = 6-10), *P < 0.05, **P < 0.01
[5] = 0.1 μmol/kg, s.c., vehicle = 100%, ± sem (n = 6-10)

## C#CCN(C)CC [EMP, N-ethyl-N-methylpropargylamine]
[1]; [4]
  response vs control in vivo at 0.1 µmol/kg: 82 ± 19%

## C#CCN[C@@H](C)CCCCC [Example S-2HPA, (S)-N-(2-heptyl)-propargylamine]
[1]; [5]
  mean survival of CA1 neurons, percentage of vehicle treated controls (Table 2): 131 ± 19%
[1]; [4]
  response vs control in vivo at 0.1 µmol/kg: 131 ± 19%
[2]
  Percent Apoptotic Nuclei (Ara C + R-2HMP + compound): 13.8 ± 1.2%
  Percent Apoptotic Nuclei (Control + compound): 4.7 ± 0.7%
  Percent Apoptotic Nuclei (Ara C + compound): 14.2 ± 0.9%
[2]; in words
  antagonism of the anti-apoptotic action of the R-enantiomers: antagonists of the anti-apoptotic action of the R-enantiomers
  anti-apoptotic effect: does not have an anti-apoptotic effect
[3]
  Comparison to most effective MAO-B inhibitor in group: 0.1%
  IC50: 30 µM

## C#CCN(C)CCCCCC [Example 1HxMP, N-(1-hexyl)-N-methylpropargylamine]
[1]; [4]
  response vs control in vivo at 0.1 µmol/kg: 215 ± 24%

## C#CCNCC [EPA, N-ethylpropargylamine]
[1]; [4]
  response vs control in vivo at 0.1 µmol/kg: 164 ± 18%

## CCCCC[C@@H](C)NC [Example R-2HMA, (R)-N-(2-heptyl)-methylamine]
[1]; [5]
  mean survival of CA1 neurons, percentage of vehicle treated controls (Table 2): 85 ± 26%
[1]; s.c.
  activity in the hypoxia/ischaemia model: neither increase nor decrease the CA1 neuronal death

## C#CCN(C)C [DMP, N,N-dimethylpropargylamine]
[1]; Rattus norvegicus, Neuron, sc
  response vs control in vivo at 0.1 µmol/kg: 117 ± 28%

## C#CCN(C)[C@@H](C)CCCCC [Example S-2HMP, (S)-N-(2-heptyl)-N-methyl-propargylamine]
[1]; [5]
  mean survival of CA1 neurons, percentage of vehicle treated controls (Table 2): 112 ± 23%
[1]; [4]
  response vs control in vivo at 0.1 µmol/kg: 112 ± 23%
[2]
  blocking of Ara C induced apoptosis: did not
  Percent Apoptotic Nuclei (Ara C + R-2HMP + compound): 15.1 ± 0.9%
  Percent Apoptotic Nuclei (Control + compound): 5.0 ± 0.6%
  Percent Apoptotic Nuclei (Ara C + compound): 13.7 ± 1.1%
[2]; in words
  antagonism of the anti-apoptotic action of the R-enantiomers: antagonists of the anti-apoptotic action of the R-enantiomers
[3]
  Comparison to most effective MAO-B inhibitor in group: 0.8%
  IC50: 4 µM

## CCCC(C(=O)OCCN(CC)CC)(c1ccccc1)c1ccccc1 [proadifen]
Damaged neurons; pretreatment with P450 inhibitor
  effect on P450-dependent neurorescue properties of deprenyl: eliminates the neurorescue properties of deprenyl

## C#CCNCCCCCC [Example 1HxPA, N-1-Hexylpropargylamine hydrochloride]
[1]; [4]
  response vs control in vivo at 0.1 µmol/kg: 179 ± 23%

## C#CCNCCC.Cl [Example 1PrPA, N-1-Propylpropargylamine hydrochloride]
[1]; [4]
  response vs control in vivo at 0.1 µmol/kg: 174 ± 29%
[1]; s.c.
  activity in the hypoxia/ischaemia model: active

## C#CCN(C)C(C)C [Example 2PrMP, N-(2-propyl)-N-methylpropargylamine]
[1]; [4]
  response vs control in vivo at 0.1 µmol/kg: 255 ± 43%
[1]; s.c.
  activity in the hypoxia/ischaemia model: slightly lower than those of the optimum branched chain compounds

## C#CCNC [MPA, N-methylpropargylamine]
[1]; Rattus norvegicus, Neuron, sc
  response vs control in vivo at 0.1 µmol/kg: 78 ± 31%

## C#CCN(C)[C@H](C)CCCC [Example R-2HxMP, N-(2-hexyl)-N-methyl-propargylamine]
[3]
  Comparison to most effective MAO-B inhibitor in group: 100%
  IC50: 0.03 µM

## C#CCNC(C)Cc1ccccc1 (centres unmarked) [Desmethyldeprenyl]
Damaged neurons
  anti-apoptotic / neurorescue activity: active as an anti-apoptotic drug

## C#CCNC(C)CCCC (centres unmarked) [Example 2HxPA, N-(2-hexyl)-propargylamines]
[3]
  MAO-B inhibitory activity: substantially reduced in comparison to those of the N-methyl compounds

## C#CCN(C)[C@@H](C)CC [Example S-2BuMP, (S)-N-(2-butyl)-N-methylpropargylamine]
[1]; Rattus norvegicus, Neuron, sc
  response vs control in vivo at 0.1 µmol/kg: 139 ± 38%

## C#CCN[C@H](C)CCCC.Cl [Example R-2HxPA, (R)-N-2-Hexylpropargylamine hydrochloride]
[3]
  Comparison to most effective MAO-B inhibitor in group: 0.8%
  IC50: 4 µM

## CCCCC[C@@H](C)N [Example R-2HA, (R)-(2-heptyl)amine]
[1]; [5]
  mean survival of CA1 neurons, percentage of vehicle treated controls (Table 2): 90 ± 30%
[1]; s.c.
  activity in the hypoxia/ischaemia model: neither increase nor decrease the CA1 neuronal death

## C#CCN(C)[C@@H](C)Cc1ccccc1 [S-deprenyl]
[2]
  blocking of Ara C induced apoptosis: did not

## C#CCN(C)[C@H](C)CCCCC [Example R-2HMP, (R)-N-(2-heptyl)-N-methyl-propargylamine]
[1]; [5]
  mean survival of CA1 neurons, percentage of vehicle treated controls (Table 2): 239 ± 35%
[1]; [4]
  response vs control in vivo at 0.1 µmol/kg: 239 ± 35%
[1]; Rattus norvegicus, Neuron, sc, subcutaneous administration
  ED50: 0.001 to 0.01 µmol/kg
[1]; s.c.
  activity in the hypoxia/ischaemia model: shows significant activity
[2]
  blocking of Ara C induced apoptosis: completely blocked
  Percent Apoptotic Nuclei (Control + compound): 4.8 ± 0.7%
  Percent Apoptotic Nuclei (Ara C + compound): 6.3 ± 0.8%
[2]; Rattus norvegicus, inhibition of Ara C induced apoptosis (FIG. 1a, 1b)
  EC50: 0.001 to 0.1 µM
Mouse brain MAO-B; in vivo, relative to R-2HMP
  Comparison to most effective inhibitor: 100%
Mouse brain MAO-B; mouse brain MAO-B, fold more potent than R-deprenyl
  potency relative to R-deprenyl: 2.5 fold
Mouse brain MAO-B; mouse, ip, 2 h, PE 1.9 × 10^-5 M, striata two hours after administration, estimated from dose-response curves, read-out: IC50 (mg/Kg) (MAO-B, in vivo)
  ED50: 0.2 mg/kg
[3]
  Comparison to most effective MAO-B inhibitor in group: 100%
  IC50: 0.03 µM

## C#CCNC(C)CC (centres unmarked) [Example 2BuPA, N-(2-butyl)-propargylamine]
[3]
  MAO-B inhibitory activity: substantially reduced in comparison to those of the N-methyl compounds

## C#CCN(C)[C@H](C)CC [Example R-2BuMP, (R)-N-(2-butyl)-N-methylpropargylamine]
[1]; Rattus norvegicus, Neuron, sc
  response vs control in vivo at 0.1 µmol/kg: 297 ± 52%

## C#CCN(C)CCC [Example 1PrMP, N-(1-propyl)-N-methylpropargylamine]
[1]; [4]
  response vs control in vivo at 0.1 µmol/kg: 127 ± 31%
[1]; s.c.
  activity in the hypoxia/ischaemia model: inactive

## C#CCNC(C)CCCCC (centres unmarked) [Example 2HPA, N-(2-heptyl)-propargylamine]
[3]
  MAO-B inhibitory activity: substantially reduced in comparison to those of the N-methyl compounds

## C#CCN(C)[C@@H](C)CCCC [Example S-2HxMP, N-(2-hexyl)-N-methyl-propargylamine]
[3]
  Comparison to most effective MAO-B inhibitor in group: 4.3%
  IC50: 0.7 µM

## C#CCN[C@H](C)CC.Cl [Example R-2BuPA, (R)-N-2-Butylpropargylamine hydrochloride]
[1]; [4]
  response vs control in vivo at 0.1 µmol/kg: 263 ± 37%
[3]
  Comparison to most effective MAO-B inhibitor in group: 1.4%
  IC50: 70 µM

## C#CCNC(C)C.Cl [Example 2PrPA, N-2-Propylpropargylamine hydrochloride]
[1]; [4]
  response vs control in vivo at 0.1 µmol/kg: 175 ± 20%
[1]; s.c.
  activity in the hypoxia/ischaemia model: slightly lower than those of the optimum branched chain compounds

## C#CCN[C@@H](C)CC [Example S-2BuPA, (S)-N-(2-butyl)-propargylamine]
[3]
  Comparison to most effective MAO-B inhibitor in group: 0.2%
  IC50: 500 µM
